In one assay the test system is HCV replicon genotype 1a. Description: microbe, parasite or virus in culture. It is filed as cell-based. To be noted: genotype 1a replicon cells, incubated 96 hours, NS3/4A ELISA readout. For orientation: In antiviral work, replicon cells carry a viral genome segment that copies itself.
Another assay concerns HCV replicon genotype 1b. Description: microbe, parasite or virus in culture. It is filed as cell-based. To be noted: genotype 1b replicon cells, incubated 96 hours, NS3/4A ELISA readout.

Experimental findings from US9265773B2, “Tetracyclic heterocycle compounds and methods of use thereof for the treatment of viral diseases” (priority 2011, dated 2016) are described below.

One may read the IC50 as the concentration needed to halve the response being measured. Low values mean greater potency, high ones weaker potency. For `CNC(=O)c1c(-c2ccc(F)cc2)oc2cc(N(C)S(C)(=O)=O)c(-c3ccc4c(c3)-c3cc5ccccc5n3CC(F)(F)CO4)cc12` [Compound 77, 5-(7,7-difluoro-7,8-dihydro-6H-benzo[2,3][1,5]oxazocino[5,4-a]indol-2-yl)-2-(4-fluorophenyl)-N-methyl-6-(N-methylmethylsulfonamido)benzofuran-3-carboxamide], the IC50 in the assay on HCV replicon genotype 1a (Hepatitis C virus, 96 h) came to 10 nM; in the assay with HCV replicon genotype 1b (Hepatitis C virus, 96 h) it was 11 nM.
The matching figures for `CNC(=O)c1c(-c2ccc(F)cc2)oc2cc(N(C)S(C)(=O)=O)c(-c3ccc4c(n3)-c3nc5ccccc5n3CO4)cc12` [Compound 136]: 3.5 nM and 2.9 nM.
On the same counts, the results for `CNC(=O)c1c(-c2ccc(F)cc2)oc2cc(N(C)S(C)(=O)=O)c(-c3ccc4c(n3)-c3cc5cccc(CN)c5n3CO4)cc12` [Compound 69] are 57 nM and 45 nM.
Consider `CNC(=O)c1c(-c2ccc(F)cc2)oc2cc(N(C)S(C)(=O)=O)c(-c3ccc4c(n3)-c3cc5c(F)cccc5n3C(CNC(=O)[C@@H]3CCCN3C(=O)OC)O4)cc12` (stereo partly drawn) [Compound 126], for which the IC50 with HCV replicon genotype 1a came to 2.7 nM; in the assay with HCV replicon genotype 1b it was 1.4 nM.
For `CNC(=O)c1c(-c2ccc(F)cc2)oc2cc(N(C)S(C)(=O)=O)c(-c3ccc4c(n3)-c3cc5c(F)cccc5n3C(CNC(C)C(=O)O)O4)cc12` (stereo not drawn) [Compound 117], the IC50 is 74 nM in the assay with HCV replicon genotype 1a (Hepatitis C virus, 96 h) and 7.5 nM with HCV replicon genotype 1b (Hepatitis C virus, 96 h).
As to `CNC(=O)c1c(-c2ccc(F)cc2)oc2cc(N(C)S(C)(=O)=O)c(-c3ccc4c(n3)-c3cc5c(F)cccc5n3C(CN3CCOCC3)O4)cc12` (stereo not drawn) [Compound 123, 5-(11-fluoro-6-(morpholinomethyl)-6H-pyrido[2′,3′:5,6][1,3]oxazino[3,4-a]indol-2-yl)-2-(4-fluorophenyl)-N-methyl-6-(N-methylmethylsulfonamido)benzofuran-3-carboxamide], the IC50 is 3.4 nM in the assay on HCV replicon genotype 1a (Hepatitis C virus, 96 h) and 3.6 nM in the assay with HCV replicon genotype 1b (Hepatitis C virus, 96 h).
On the same counts, the results for `CNC(=O)c1c(-c2ccc(F)cc2)oc2cc(N(C)S(C)(=O)=O)c(-c3ccc4c(n3)-c3cc5c(F)cccc5n3C(CN)O4)cc12` (stereo not drawn) [Compound 114, 5-(6-(aminomethyl)-11-fluoro-6H-pyrido[2′,3′:5,6][1,3]oxazino[3,4-a]indol-2-yl)-2-(4-fluorophenyl)-N-methyl-6-(N-methylmethylsulfonamido)benzofuran-3-carboxamide] are 7.3 nM and 18 nM.
On the same counts, the results for `CN(O)C(=O)c1c(-c2ccc(F)cc2)oc2cc(N(C)S(C)(=O)=O)c(-c3ccc4c(n3)-c3cc5c(F)cccc5n3CO4)cc12` [Compound 155] are 7 nM and 17 nM.
The matching figures for `CNC(=O)c1c(-c2ccc(F)cc2)oc2cc(N(C)S(C)(=O)=O)c(-c3ccc4c(n3)-c3[nH]c5cccc(F)c5c3C(c3cccs3)O4)cc12` (stereo not drawn) [Compound 66, 5-(7-fluoro-6-(thiophen-2-yl)-6,11-dihydropyrido[2′,3′:5,6]pyrano[4,3-b]indol-2-yl)-2-(4-fluorophenyl)-N-methyl-6-(N-methylmethylsulfonamido)benzofuran-3-carboxamide]: 49 nM and 59 nM.
For `CNC(=O)c1c(-c2ccc(F)cc2)oc2cc(N(C)S(C)(=O)=O)c(-c3ccc4c(n3)-c3nc5c(F)cccc5n3CO4)cc12` [Compound 139], the IC50 with HCV replicon genotype 1a (Hepatitis C virus, 96 h) stood at 1.9 nM; with HCV replicon genotype 1b (Hepatitis C virus, 96 h), 1.9 nM.
Turning to `CNC(=O)c1c(-c2ccc(F)cc2)oc2cc(N(C)S(C)(=O)=O)c(-c3ccc4c(c3)-c3cc5ccccc5n3CC(F)CO4)cc12` (stereo not drawn) [Compound 76, 5-(7-fluoro-7,8-dihydro-6H-benzo[2,3][1,5]oxazocino[5,4-a]indol-2-yl)-2-(4-fluorophenyl)-N-methyl-6-(N-methylmethylsulfonamido)benzofuran-3-carboxamide], the IC50 in the assay with HCV replicon genotype 1a (Hepatitis C virus, 96 h) was 4.5 nM; in the assay with HCV replicon genotype 1b (Hepatitis C virus, 96 h) it was 5.8 nM.
On to `CNC(=O)c1c(-c2ccc(F)cc2)oc2cc(N(C)S(C)(=O)=O)c(-c3ccc4c(c3)-c3cc5ccccc5n3CC(NC3CCN(C)CC3)CO4)cc12` (stereo not drawn) [Compound 82], for which the IC50 amounted to 15 nM in the assay on HCV replicon genotype 1a (Hepatitis C virus, 96 h) and 11 nM in the assay on HCV replicon genotype 1b (Hepatitis C virus, 96 h).
